SMILES strings stand for the structures.

From patent publication US5124167A, “Anti-oxidant compositions containing fat” (Bar-Ilan University, priority 1990, dated 1992) come the findings set out here.

The assay concerns skin of adult mice (level of peroxides). In words: Peroxide level (TBA test) in skin of adult mice after cream application. To be noted: 0.1% dissolved in Oil of Olay, similar experiments. Format: in vivo. The method, then:
The plants that may be utilized as a source of the water soluble extract include the plant tissues of selected species such as the stems and green leaves selected from the group consisting of Spinacia, Trifolium, Medicago, Zea, Penicillaria, Algae, and Nicotiana. Other plants may be utilized if an aqueous extract of the green leaves provide an antioxidant effect when it is applied to skin. The antioxidant effect is determined by the thiobarbituric acid (TBA) test. This test is described in Food Res. V. 23, P 620 (1958). Generally the level of peroxide in the skin may be determined by assay of a sample of untreated skin which is peeled from a test animal. A preweighed sample of from 10 to 50 mg is homogenized in 0.2 M phosphate buffer pH 6.5 and centrifuged. The supernatant is collected and the peroxide level is determined using the TBA test. A sample of skin from the same animal which has been treated according to the invention is also peeled and the peroxide level is determined. A reduction in the peroxide level of about 35% when an antioxidant obtained from a plant is applied as 0.5% w/w dispersion in a petrolatum base is the criteria for determining if a given plant extract is useful according to the present invention.
Samples of creams and appropriate controls were applied to mice or rat skin for a fixed period. The application was done once a day. Experiments were terminated by killing the animals, peeling the skin and freezing it in liquid nitrogen. Samples of the frozen skin were homogenized in 0.2M phosphate buffer, pH 6.5. After centrifugation the supernatant was collected and analyzed for the peroxide value using the TBA (Thiobarbituric acid) test as described by Sinnhuber, et al. Food Res. V. 23, p 620 (1958).
In these experiments adult mice (2months old) were treated as described in Example 2. The grown mice were shaved before applying the creams to the skin.
In this experiment the antioxidant was dissolved in Oil of Olay. Mice were sacrificed after 21 days.
As to `COc1ccc(O)c(C(C)(C)C)c1` [BHA, butylated hydroxy anisole], the “effect on the level of peroxides in the skin” value (shortened to “effect on the level”) is recorded as “no reduction of the peroxides was observed”.
With `Cc1c(C)c2c(c(C)c1O)CCC(C)(CCCC(C)CCCC(C)CCCC(C)C)O2` (stereo not drawn) [alpha tocopherol], the “effect on the level” value was “no reduction of the peroxides was observed”.
Regarding `Cc1cc(C(C)(C)C)c(O)c(C(C)(C)C)c1` [BHT, butylated hydroxy toluene], the “effect on the level” value is given as “no reduction of the peroxides was observed”.
